# System: Immature cryopreserved C57BL/6 and BALB/c DCs
# Experiment: Luminex xMAP cytokine production by cryopreserved murine immature DCs primed with TLR agonist then oxPAPC or PGPC (Example 5)
# Type: cell-based, C57BL/6 and BALB/c mice
# Settings: TLR agonist stimulated murine DCs; increasing concentrations of lipid (1-90 μg/ml, 48 hours)
# Procedure: Immature cryopreserved C57BL/6 and BALB/c DCs (Cellero) were rapidly thawed in a water bath at 37° C. and the cells were resuspended in 10 times the volume of RPMI 1640/10% FBS/penicillin/streptomycin/L-glutamine/2-ME. Cells were washed twice using complete media. Thawed cells were plated in triplicate at 2×10^5 cells/well in a 96-well flat bottom TC plate. DCs were primed with 1 μg/ml of LPS (Sigma Aldrich), 1:400 dilution of hBCG (Organon Teknika/Cognate), 1 μg/ml of R848 (Sigma Aldrich), 1 μg/ml Pam2 (Invivogen), 1 μg/ml Pam3 (Invivogen), and 25 μg/ml of Poly I:C HMW (“high molecular weight”; Invivogen) for 3 hrs. Titrated concentrations of oxPAPC (Invivogen) or PGPC (Cayman)—at 1 μg/ml, 3 μg/ml, 10 μg/ml, 30 μg/ml, and 90 μg/ml—were added to appropriate samples and cultured for an additional 48 hours. Cytokine production in 100 μl of culture medium was assessed by a mouse cytokine and chemokine panel, across 26 protein targets (IFNγ; IL12 p70; IL13; IL1β; IL2; IL4; IL5; IL6; TNFα; GM-CSF; IL18; IL10; IL17A; IL22; IL23; IL27; IL9; GROα; IP10; MCP1; MCP3; MIP1α; MIP1β; MIP2; RANTES; and Eotaxin), using Luminex xMAP® multiplex technology using the manufacturer's. The xMAP system is an immunoassay system that can simultaneously detect many targets in a single sample.
compound,measurement,value
"CCCCCCCCCCCCCCCC(=O)OCC(COP(=O)([O-])OCC[N+](C)(C)C)OC(=O)CCCC(=O)O (stereo not shown) [PGPC, 1-palmitoyl-2-glutaryl phosphatidylcholine]",production of IL-1β,upregulated production
